# Measurements published in the supplement of paper PMC10733146.
# Assays:
# Test in all cases: viability relative to DMSO control (fraction); higher = less drug effect (more viable cells)
# Details in all cases: 48 h
# [1] = compound: C#CCC(Cc1cnc2nc(N)nc(N)c2n1)c1ccc(C(=O)N[C@@H](CCC(=O)O)C(=O)O)cc1 [Pralatrexate]
# Summary of the method: (§1)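 Viability is given as CellTiter-Glo luminescence relative to the median of 16 inner DMSO wells. Fresh or cryopreserved primary mononuclear tumour cells from blood, bone marrow (both Ficoll-isolated) or processed lymph node were plated at 4 × 10^4 cells per well in 384-well plates against five pre-plated compound concentrations, one well each. Incubation lasted 48 h at 37 °C and 5% CO2 in RPMI-1640 with penicillin/streptomycin, L-glutamine and human serum.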
# [2] = compound: CC#CC(=O)N1CC[C@@H](n2c(=O)n(-c3ccc(Oc4ccccc4)cc3)c3c(N)ncnc32)C1 [ONO-4059]
# Summary of the method: as §1
# [3] = compound: CC(C)(C)OC(=O)Nc1ccc(-c2cc(C(=O)NCCCCCCC(=O)NO)no2)cc1
# Summary of the method: as §1
# [4] = compound: CCCS(=O)(=O)Nc1ccc(F)c(C(=O)c2c[nH]c3ncc(-c4ccc(Cl)cc4)cc23)c1F [Vemurafenib]
# Summary of the method: as §1
# [5] = compound: CCOc1cc(C(=O)N2CCC(N3CCN(C)CC3)CC2)ccc1Nc1ncc2c(n1)N(C1CCCC1)c1ccccc1C(=O)N2C [ERK5-IN-1]
# Summary of the method: as §1
# [6] = compound: CC[C@@H]1C(=O)N(C)c2cnc(Nc3ccc(C(=O)N[C@H]4CC[C@H](N5CCN(CC6CC6)CC5)CC4)cc3OC)nc2N1C(C)C [BI6727]
# Summary of the method: as §1
# [7] = compound: CC[C@]1(O)C[C@H]2CN(CCc3c([nH]c4ccccc34)[C@@](C(=O)OC)(c3cc4c(cc3OC)N(C=O)[C@H]3[C@@](O)(C(=O)OC)[C@H](OC(C)=O)[C@]5(CC)C=CCN6CC[C@]43[C@@H]65)C2)C1 [Vincristine]
# Summary of the method: as §1
# [8] = compound: CN(C)C(=O)c1cc2cnc(Nc3ccc(N4CCNCC4)cn3)nc2n1C1CCCC1 [Ribociclib]
# Summary of the method: as §1
# [9] = compound: COC1=CC(c2cc3ccccc3[nH]2)=N/C1=C\c1[nH]c(C)cc1C [Obatoclax mesylate]
# Summary of the method: as §1
# [10] = compound: COc1c(Cl)cc2c([nH]c3cnccc32)c1NC(=O)c1cccnc1C [MLN-120B]
# Summary of the method: as §1
# [11] = compound: Cc1[nH]c2ccccc2c1CCNCc1ccc(/C=C/C(=O)NO)cc1 [Panobinostat]
# Summary of the method: as §1
# [12] = compound: NC(=O)Nc1cc(-c2cccc(F)c2)sc1C(=O)N[C@H]1CCCNC1 [AZD7762]
# Summary of the method: as §1
# [13] = compound: Nc1nc(Cl)nc2c1ncn2[C@H]1C[C@H](O)[C@@H](CO)O1 [Cladribine]
# Summary of the method: as §1
# [14] = compound: O=C(CCCCCCC(=O)Nc1ccccc1)NO [Vorinostat]
# Summary of the method: as §1
# [15] = compound: O=C(NCC1(c2nc(-c3ccccc3)cs2)CCOCC1)c1cccc(-c2noc(C(F)(F)F)n2)c1 [TMP269]
# Summary of the method: as §1
# [16] = compound: OC[C@H]1O[C@@H](n2cnc3c2N=CNC[C@H]3O)C[C@@H]1O [Pentostatin]
# Summary of the method: as §1
# [17] = compound: CC[C@H](NC(=O)[C@H](C)NC)C(=O)N1C[C@@H](O)C[C@H]1Cc1c(-c2[nH]c3cc(F)ccc3c2C[C@@H]2C[C@H](O)CN2C(=O)[C@H](CC)NC(=O)[C@H](C)NC)[nH]c2cc(F)ccc12 [Birinapant]
# Summary of the method: as §1
# [18] = compound: Cc1ccc(NC(=O)c2ccc(CN3CCN(C)CC3)cc2)cc1Nc1nccc(-c2cccnc2)n1 [Imatinib]
# Summary of the method: as §1
# [19] = compound: Cc1cn(-c2cc(NC(=O)c3ccc(C)c(Nc4nccc(-c5cccnc5)n4)c3)cc(C(F)(F)F)c2)cn1 [Nilotinib]
# Summary of the method: as §1
test system,measurement,setting,value
primary DLBCL patient cells (S076),viability,[1]; 0.024 µM,1.01
same,viability,[1]; 0.12 µM,0.756
same,viability,[1]; 0.6 µM,0.838
same,viability,[1]; 3 µM,0.978
same,viability,[1]; 15 µM,0.843
same,viability,[2]; 0.0016 µM,1.03
same,viability,[2]; 0.008 µM,1.04
same,viability,[2]; 0.04 µM,1.08
same,viability,[2]; 0.2 µM,0.992
same,viability,[2]; 1 µM,0.929
same,viability,[3]; 0.024 µM,1.05
same,viability,[3]; 0.12 µM,0.81
same,viability,[3]; 0.6 µM,0.628
same,viability,[3]; 3 µM,0.313
same,viability,[3]; 15 µM,0.119
same,viability,[4]; 0.024 µM,0.8
same,viability,[4]; 0.12 µM,0.988
same,viability,[4]; 0.6 µM,0.83
same,viability,[4]; 3 µM,1.04
same,viability,[4]; 15 µM,1.05
same,viability,[5]; 0.024 µM,1.09
same,viability,[5]; 0.12 µM,1
same,viability,[5]; 0.6 µM,0.876
same,viability,[5]; 3 µM,0.755
same,viability,[5]; 15 µM,0.436
same,viability,[6]; 0.024 µM,1.07
same,viability,[6]; 0.12 µM,0.971
same,viability,[6]; 0.6 µM,0.881
same,viability,[6]; 3 µM,0.614
same,viability,[6]; 15 µM,0.372
same,viability,[7]; 0.016 µM,0.726
same,viability,[7]; 0.08 µM,0.561
same,viability,[7]; 0.4 µM,0.519
same,viability,[7]; 2 µM,0.44
same,viability,[7]; 10 µM,0.363
same,viability,[8]; 0.024 µM,1.25
same,viability,[8]; 0.12 µM,1.2
same,viability,[8]; 0.6 µM,1.11
same,viability,[8]; 3 µM,0.986
same,viability,[8]; 15 µM,0.586
same,viability,[9]; 0.024 µM,0.922
same,viability,[9]; 0.12 µM,1.14
same,viability,[9]; 0.6 µM,0.746
same,viability,[9]; 3 µM,0.541
same,viability,[9]; 15 µM,0.173
same,viability,[10]; 0.024 µM,1.07
same,viability,[10]; 0.12 µM,1.07
same,viability,[10]; 0.6 µM,1.05
same,viability,[10]; 3 µM,0.997
same,viability,[10]; 15 µM,0.861
same,viability,[11]; 0.00064 µM,1.05
same,viability,[11]; 0.0032 µM,0.78
same,viability,[11]; 0.016 µM,0.285
same,viability,[11]; 0.08 µM,0.203
same,viability,[11]; 0.4 µM,0.169
same,viability,[12]; 0.024 µM,0.679
same,viability,[12]; 0.12 µM,0.69
same,viability,[12]; 0.6 µM,0.55
same,viability,[12]; 3 µM,0.481
same,viability,[12]; 15 µM,0.348
same,viability,[13]; 0.024 µM,0.475
same,viability,[13]; 0.12 µM,0.331
same,viability,[13]; 0.6 µM,0.138
same,viability,[13]; 3 µM,0.0919
same,viability,[13]; 15 µM,0.0759
same,viability,[14]; 0.016 µM,1
same,viability,[14]; 0.08 µM,0.884
same,viability,[14]; 0.4 µM,0.734
same,viability,[14]; 2 µM,0.417
same,viability,[14]; 10 µM,0.198
same,viability,[15]; 0.024 µM,1.17
same,viability,[15]; 0.12 µM,1.07
same,viability,[15]; 0.6 µM,1.15
same,viability,[15]; 3 µM,0.94
same,viability,[15]; 15 µM,0.959
same,viability,[16]; 0.03 µM,1.04
same,viability,[16]; 0.15 µM,0.808
same,viability,[16]; 0.75 µM,0.824
same,viability,[16]; 3.75 µM,0.6
same,viability,[16]; 18.76 µM,0.618
primary AML patient cells (S007),viability,[2]; 0.0016 µM,0.967
same,viability,[2]; 0.008 µM,0.928
same,viability,[2]; 0.04 µM,0.962
same,viability,[2]; 0.2 µM,1.03
same,viability,[2]; 1 µM,0.804
same,viability,[17]; 0.0008 µM,0.866
same,viability,[17]; 0.004 µM,0.744
same,viability,[17]; 0.02 µM,0.573
same,viability,[17]; 0.1 µM,0.384
same,viability,[17]; 0.5 µM,0.321
same,viability,[8]; 0.024 µM,0.949
same,viability,[8]; 0.12 µM,0.904
same,viability,[8]; 0.6 µM,0.766
same,viability,[8]; 3 µM,0.308
same,viability,[9]; 0.024 µM,0.717
same,viability,[9]; 0.12 µM,0.684
same,viability,[9]; 0.6 µM,0.659
same,viability,[9]; 3 µM,0.254
same,viability,[9]; 15 µM,0.0248
same,viability,[10]; 0.024 µM,0.816
same,viability,[10]; 0.12 µM,0.781
same,viability,[10]; 0.6 µM,0.728
same,viability,[10]; 3 µM,0.605
same,viability,[10]; 15 µM,0.375
same,viability,[18]; 0.016 µM,1.16
same,viability,[18]; 0.08 µM,0.987
same,viability,[18]; 0.4 µM,1.08
same,viability,[18]; 2 µM,0.765
same,viability,[18]; 10 µM,0.319
same,viability,[19]; 0.016 µM,1.19
same,viability,[19]; 0.08 µM,1.23
same,viability,[19]; 0.4 µM,1.24
same,viability,[19]; 2 µM,1.04
same,viability,[19]; 10 µM,1.31
